Measured values taken from patent EP0326331B1, “Substituted quinolines and cinnolines” (Dow AgroSciences LLC, priority 1988, dated 1989).

Assays:
Type in all cases: in vivo
[1] = tested on: melon aphids (Aphis gossypii Glover); test: Mite/insect screen, MA; details: Aphis gossypii, percent mortality; SAW, SM & MA RATE 200 PPM; read-out: MA RESULTS %
Outline: (§1)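 First, each compound was dissolved in an emulsifier-containing acetone/alcohol mixture and diluted with water. Next, leaves were sprayed until runoff and left to dry for an hour. For southern armyworm, two excised uninfested leaves went into a Petri dish with larvae; percent mortality followed standard exposure periods.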

[2] = tested on: Erysiphe graminis tritici (powdery mildew); test: Test 1 greenhouse foliar spray screen, powdery mildew on wheat; details: disease control rating, foliar spray on wheat, 400 ppm (+++ at 100 ppm)
[3] = tested on: Septoria tritici (leaf blotch); test: Test 1 greenhouse foliar spray screen, leaf blotch on wheat; details: disease control rating, foliar spray on wheat, 400 ppm (+++ at 100 ppm)
[4] = tested on: southern armyworm (Spodopetra eridania Cramer); test: Mite/insect screen, SAW; details: Spodoptera eridania, percent mortality; SAW, SM & MA RATE 200 PPM; read-out: SAW RESULTS %
Outline: as §1

[5] = tested on: Venturia inaequalis (apple scab); test: Test 1 greenhouse foliar spray screen, apple scab on apple seedling; details: disease control rating, foliar spray on apple seedling, 400 ppm (+++ at 100 ppm)
[6] = tested on: Twospotted spider mites (Tetranychus urticae Koch); test: Mite/insect screen, SM; details: Tetranychus urticae, percent mortality; SAW, SM & MA RATE 200 PPM; read-out: SM RESULTS %
Outline: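 Read-out: percent mortality after standard exposure periods. Test solutions were water dilutions of compound dissolved in acetone/alcohol (50:50) with emulsifier blends; leaves were sprayed to runoff on both surfaces and air-dried for one hour before exposure.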

[7] = tested on: Puccinia recondita tritici (leaf rust); test: Test 1 greenhouse foliar spray screen, leaf rust on wheat; details: disease control rating, foliar spray on wheat, 400 ppm (+++ at 100 ppm)
corn rootworm = test: Mite/insect screen, CRW; details: percent mortality; CRW RATE 12.00 PPM; read-out: CRW RESULTS %
Outline: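 Stock in acetone:alcohol 1:1 + TOXIMUL R 23 g/L + TOXIMUL S 13 g/L; diluted with water to indicated concentrations; mortality (%) after standard exposure.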

[8] = tested on: Pyricularia oryzae (rice blast); test: whole plant or invertebrate; details: disease control rating, foliar spray on rice, 400 ppm (+++ at 100 ppm)
[9] = tested on: Botrytis cinerea (gray mold); test: Test 1 greenhouse foliar spray screen, gray mold on grape berries; details: disease control rating, spray on grape berries, 400 ppm (+++ at 100 ppm)
[10] = tested on: Pseudoperonospora cubensis (downy mildew); test: Test 1 greenhouse foliar spray screen, downy mildew on squash; details: disease control rating, foliar spray on squash, 400 ppm (+++ at 100 ppm)

| Structure (SMILES) | mortality at 200 ppm [1] [%] | POWD MDEW [2] | LEAF BLOT [3] | mortality at 200 ppm [4] [%] | APPL SCAB [5] | mortality at 200 ppm [6] [%] | LEAF RUST [7] | mortality at 12 ppm (corn rootworm) [%] | RICE BLAST [8] | GRAY MOLD [9] | DOWN MDEW [10] |
| --- | --- | --- | --- | --- | --- | --- | --- | --- | --- | --- | --- |
| Cc1cc(NCCc2ccccc2)c2ccccc2n1 [Example 6, 2-methyl-N-(2-phenylethyl)-4-quinolinamine] | 0 | ++ (90-100% control at 400 ppm) | - (0-19% control at 400 ppm) | 0 | - (0-19% control at 400 ppm) | 0 | + (20-89% control at 400 ppm) | 0 | + (20-89% control at 400 ppm) | + (20-89% control at 400 ppm) | ++ (90-100% control at 400 ppm) |
| FC(F)(F)c1ccc2c(NCCc3ccccc3)ccnc2c1 [Example 17, N-(2-phenylethyl)-7-(trifluoromethyl)-4-quinolinamine] | 0 | ++ (90-100% control at 400 ppm) | - (0-19% control at 400 ppm) | 0 | - (0-19% control at 400 ppm) | 0 | ++ (90-100% control at 400 ppm) | 0 | + (20-89% control at 400 ppm) | - (0-19% control at 400 ppm) | ++ (90-100% control at 400 ppm) |
| Brc1ccc(CCNc2ccnc3ccccc23)cc1 [Example 18, N-[2-(4-bromophenyl)ethyl]-4-quinolinamine] | 0 | + (20-89% control at 400 ppm) | - (0-19% control at 400 ppm) | 0 | - (0-19% control at 400 ppm) | 0 | ++ (90-100% control at 400 ppm) | 0 | ++ (90-100% control at 400 ppm) | + (20-89% control at 400 ppm) | ++ (90-100% control at 400 ppm) |
| Cc1ccc(CCNc2ccnc3ccccc23)cc1 [Example 19, N-[2-(4-methylphenyl)ethyl]-4-quinolinamine] | 0 | + (20-89% control at 400 ppm) | - (0-19% control at 400 ppm) | 0 | - (0-19% control at 400 ppm) | 0 | ++ (90-100% control at 400 ppm) | 0 | ++ (90-100% control at 400 ppm) | - (0-19% control at 400 ppm) | +++ (90-100% control at 100 ppm) |
| Clc1ccc(CCNc2ccnc3ccccc23)cc1 [Example 20, N-[2-(4-chlorophenyl)ethyl]-4-quinolinamine] | 0 | + (20-89% control at 400 ppm) | - (0-19% control at 400 ppm) | 0 | - (0-19% control at 400 ppm) | 0 | + (20-89% control at 400 ppm) | 0 | + (20-89% control at 400 ppm) | - (0-19% control at 400 ppm) | +++ (90-100% control at 100 ppm) |
| CC(CNc1ccnc2ccccc12)c1ccccc1 (stereo not shown) [Example 21, N-(2-phenylpropyl)-4-quinolinamine] | 0 | + (20-89% control at 400 ppm) | - (0-19% control at 400 ppm) | 0 | - (0-19% control at 400 ppm) | 0 | + (20-89% control at 400 ppm) | 0 | + (20-89% control at 400 ppm) | - (0-19% control at 400 ppm) | ++ (90-100% control at 400 ppm) |
| COc1ccc(CCNc2ccnc3ccccc23)cc1 [Example 22, N-[2-(4-methoxyphenyl)-ethyl]-4-quinolinamine] | 0 | + (20-89% control at 400 ppm) | - (0-19% control at 400 ppm) | 0 | - (0-19% control at 400 ppm) | 0 | + (20-89% control at 400 ppm) | 0 | + (20-89% control at 400 ppm) | - (0-19% control at 400 ppm) | +++ (90-100% control at 100 ppm) |
| c1ccc(C(CNc2ccnc3ccccc23)c2ccccc2)cc1 [Example 23, N-(2,2-diphenylethyl)-4-quinolinamine] | 0 | + (20-89% control at 400 ppm) | - (0-19% control at 400 ppm) | 0 | - (0-19% control at 400 ppm) | 0 | + (20-89% control at 400 ppm) | 0 | + (20-89% control at 400 ppm) | - (0-19% control at 400 ppm) | +++ (90-100% control at 100 ppm) |
| CC(Cc1ccccc1)Nc1ccnc2ccccc12 (stereo not shown) [Example 24, N-(1-methyl-2-phenylethyl)-4-quinolinamine] | 0 | + (20-89% control at 400 ppm) | - (0-19% control at 400 ppm) | 0 | - (0-19% control at 400 ppm) | 0 | + (20-89% control at 400 ppm) | 0 | + (20-89% control at 400 ppm) | - (0-19% control at 400 ppm) | +++ (90-100% control at 100 ppm) |
| Clc1cc(NCCc2ccccc2)c2ccccc2n1 [Example 25, 2-chloro-N-(2-phenylethyl)-4-quinolinamine] | 0 | + (20-89% control at 400 ppm) | - (0-19% control at 400 ppm) | 0 | - (0-19% control at 400 ppm) | 0 | ++ (90-100% control at 400 ppm) | 0 | + (20-89% control at 400 ppm) | - (0-19% control at 400 ppm) | +++ (90-100% control at 100 ppm) |
| OC(CNc1ccnc2ccccc12)c1ccccc1 (stereo not drawn) [Example 26, α-[(4-quinolinylamino)methyl]benzenemethanol] | 0 | + (20-89% control at 400 ppm) | - (0-19% control at 400 ppm) | 0 | - (0-19% control at 400 ppm) | 0 | - (0-19% control at 400 ppm) | 0 | + (20-89% control at 400 ppm) | - (0-19% control at 400 ppm) | +++ (90-100% control at 100 ppm) |
